We go through two compounds from PMC10434068, “Discriminating Susceptibility of Xanthine Oxidoreductase Family to Metals” (Microbiology Spectrum, 2023).

The target of assay [1] is T1, XDH (xanthine dehydrogenase) of R. gelatinosus (Rubrivivax gelatinosus, UniProt I0HWE5).
T1 construct: gene xdhB; native complex of about 250 kDa in soluble fraction, native PAGE band; XdhB 82 kDa, XdhA 54 kDa, XdhC 27 kDa; band absent in xdhB mutant; with Xanthine dehydrogenase, FAD and iron-sulfur subunit XdhA; Xanthine dehydrogenase subunit or accessory protein XdhC
T1 sequence (I0HWE5 1-778): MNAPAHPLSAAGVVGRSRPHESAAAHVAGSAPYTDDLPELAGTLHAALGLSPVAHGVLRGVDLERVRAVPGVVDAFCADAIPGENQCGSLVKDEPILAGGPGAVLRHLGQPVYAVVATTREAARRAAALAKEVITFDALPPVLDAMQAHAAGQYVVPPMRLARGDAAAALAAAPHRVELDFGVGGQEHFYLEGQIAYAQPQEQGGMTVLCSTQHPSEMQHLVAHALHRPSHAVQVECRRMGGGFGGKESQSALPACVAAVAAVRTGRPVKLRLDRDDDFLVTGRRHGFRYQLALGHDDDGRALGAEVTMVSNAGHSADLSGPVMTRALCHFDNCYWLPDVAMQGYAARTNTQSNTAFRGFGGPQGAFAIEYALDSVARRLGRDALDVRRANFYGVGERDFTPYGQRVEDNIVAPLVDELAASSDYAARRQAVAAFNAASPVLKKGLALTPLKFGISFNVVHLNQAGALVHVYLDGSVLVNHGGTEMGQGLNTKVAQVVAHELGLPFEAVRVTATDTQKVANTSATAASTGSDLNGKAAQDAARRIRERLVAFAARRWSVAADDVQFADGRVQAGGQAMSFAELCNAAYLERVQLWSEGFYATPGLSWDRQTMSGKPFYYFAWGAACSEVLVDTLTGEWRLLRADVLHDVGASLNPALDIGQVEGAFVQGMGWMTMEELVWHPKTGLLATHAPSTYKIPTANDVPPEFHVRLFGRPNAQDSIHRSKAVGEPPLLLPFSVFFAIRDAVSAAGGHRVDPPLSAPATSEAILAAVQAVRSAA
T1 sequence (I0HWE6 1-493 partner): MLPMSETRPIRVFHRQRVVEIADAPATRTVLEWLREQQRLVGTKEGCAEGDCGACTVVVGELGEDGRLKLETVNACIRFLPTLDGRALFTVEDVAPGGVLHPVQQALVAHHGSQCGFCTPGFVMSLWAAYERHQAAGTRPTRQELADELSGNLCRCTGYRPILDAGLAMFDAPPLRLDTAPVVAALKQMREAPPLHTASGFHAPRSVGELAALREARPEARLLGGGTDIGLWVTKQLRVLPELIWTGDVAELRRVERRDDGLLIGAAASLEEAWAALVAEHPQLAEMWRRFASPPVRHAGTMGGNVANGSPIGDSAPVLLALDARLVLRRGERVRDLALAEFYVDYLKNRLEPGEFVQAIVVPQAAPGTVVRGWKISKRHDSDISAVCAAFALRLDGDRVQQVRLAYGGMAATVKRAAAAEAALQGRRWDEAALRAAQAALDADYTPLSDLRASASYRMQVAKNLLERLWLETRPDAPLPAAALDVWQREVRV
Put plainly: in-gel NBT reductase activity, native PAGE of soluble fraction. In kind it is biochemical. Particulars: NBT 2 mg/mL as electron acceptor; 50 mM Tris-HCl pH 7.6; room temperature.

For assay [2], the target named is T2, pCOD (putative CO dehydrogenase; CoxSLM complex) (Rubrivivax gelatinosus, UniProt I0HW74+I0HW75).
T2 construct: gene coxL; native complex in soluble fraction, native PAGE band between 130 and 250 kDa; predicted 126 kDa (CoxL 84, CoxM 27, CoxS 17 kDa); band absent in coxL mutant; with Carbon monoxide dehydrogenase large chain; Carbon monoxide dehydrogenase small chain
T2 sequence (I0HW74 1-781): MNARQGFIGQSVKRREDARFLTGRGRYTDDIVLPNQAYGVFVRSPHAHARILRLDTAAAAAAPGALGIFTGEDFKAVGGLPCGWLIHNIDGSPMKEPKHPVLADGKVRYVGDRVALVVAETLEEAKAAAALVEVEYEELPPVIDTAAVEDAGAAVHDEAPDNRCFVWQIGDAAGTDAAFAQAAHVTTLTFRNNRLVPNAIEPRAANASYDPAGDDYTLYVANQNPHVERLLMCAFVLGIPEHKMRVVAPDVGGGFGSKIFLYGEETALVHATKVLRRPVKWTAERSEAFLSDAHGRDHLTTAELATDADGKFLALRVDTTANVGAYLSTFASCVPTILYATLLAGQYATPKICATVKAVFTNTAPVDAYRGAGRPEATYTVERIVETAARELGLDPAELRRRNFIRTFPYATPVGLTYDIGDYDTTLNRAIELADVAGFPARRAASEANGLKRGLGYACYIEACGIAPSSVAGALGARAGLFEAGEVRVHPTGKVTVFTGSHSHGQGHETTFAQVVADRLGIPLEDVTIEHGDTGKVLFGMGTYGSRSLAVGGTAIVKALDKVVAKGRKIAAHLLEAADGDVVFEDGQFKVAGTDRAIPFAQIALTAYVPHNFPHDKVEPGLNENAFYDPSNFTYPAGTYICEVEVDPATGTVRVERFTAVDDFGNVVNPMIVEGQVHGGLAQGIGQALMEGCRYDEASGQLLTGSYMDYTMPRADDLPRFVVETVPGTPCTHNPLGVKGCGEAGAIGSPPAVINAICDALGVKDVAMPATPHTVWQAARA
T2 sequence (I0HW75 1-265): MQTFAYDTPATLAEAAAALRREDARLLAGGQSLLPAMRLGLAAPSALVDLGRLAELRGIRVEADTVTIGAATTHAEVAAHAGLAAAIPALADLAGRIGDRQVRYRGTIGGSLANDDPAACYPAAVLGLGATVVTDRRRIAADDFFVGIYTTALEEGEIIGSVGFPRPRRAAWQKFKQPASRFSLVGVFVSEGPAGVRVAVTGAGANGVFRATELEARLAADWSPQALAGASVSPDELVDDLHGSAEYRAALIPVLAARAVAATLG
T2 sequence (I0HW73 1-155 partner): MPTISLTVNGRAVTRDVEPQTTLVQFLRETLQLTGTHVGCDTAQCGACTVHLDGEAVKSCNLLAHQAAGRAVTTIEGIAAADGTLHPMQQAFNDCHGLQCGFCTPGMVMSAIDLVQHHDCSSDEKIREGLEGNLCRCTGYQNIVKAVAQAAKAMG
The assay is described as follows: in-gel NBT reductase activity, native PAGE of soluble fraction, no riboflavin. The note with it: NBT 2 mg/mL; 50 mM Tris-HCl pH 7.6; room temperature, dark; no electron donor added; reduction may run through superoxide. The format is biochemical.

Regarding `O=c1[nH]c(=O)c2[nH]cnc2[nH]1` [xanthine], the “in-gel NBT reductase activity, native PAGE of soluble fraction” value in assay [1] is given as “the addition of xanthine to the native PAGE gel revealed a second active band”.

As for `COc1cc(-c2ccc(-n3nc(-c4ccccc4)n[n+]3-c3ccc([N+](=O)[O-])cc3)c(OC)c2)ccc1-n1nc(-c2ccccc2)n[n+]1-c1ccc([N+](=O)[O-])cc1` [nitroblue tetrazolium], the “in-gel NBT reductase activity, native PAGE of soluble fraction, no riboflavin” value in assay [2] was “able to reduce NBT to NBT-formazan in the absence of riboflavin”.
